One data set is described as follows: in vivo. As to conditions: female, Beagle, dog.
For data set [1] the following is noted: cited from earlier work.
For data set [2] the following is noted: cited from earlier work. This is another data set of the same source.
For data set [3] the following is noted: physiological release of oxytocin; cited from earlier work.
Setting [4] is: 0.8 mg, Lorazepam 0.8 mg (1st), vaginal, present study.
[5] abbreviates: 0.8 mg, Lorazepam 0.8 mg (2nd), vaginal, present study.
Setting [6] is: vaginal administration, Beagle dogs, two animals per compound.
Where [7] appears, read: 5 min after first vaginal dose, individual dogs.
Where [8] appears, read: 10 min after first vaginal dose, individual dogs.
Setting [9] is: 20 min after first vaginal dose, individual dogs.
The mark [10] stands for this setting: 30 min after first vaginal dose, individual dogs.
The mark [11] stands for this setting: 60 min after first vaginal dose, individual dogs.
[12] abbreviates: 135 min after first dose (second vaginal dose at 125 min), individual dogs.
[13] abbreviates: 155 min after first dose (second vaginal dose at 125 min), individual dogs.
Where [14] appears, read: 185 min after first dose (second vaginal dose at 125 min), individual dogs.
[15] abbreviates: Dog, Lorazepam 0.8 mg (1st), vaginal, present study.
Setting [16] is: Human, Lorazepam 2.0 mg, intramuscular, Wermeling.
Setting [17] is: Human, Lorazepam 2.0 mg, intravenous, Wermeling.
Where [18] appears, read: Human, Lorazepam 2.0 mg, nasal, Wermeling.
Setting [19] is: Human, Lorazepam 2.0 mg, oral, Blin.
[20] abbreviates: Human, Nicotine 2.0 mg, intrapulmonary, Russell.
Setting [21] is: Human, Nicotine 4.0 mg, oral (gum), Russell.
Setting [22] is: Dog, 2.5 mg/24 h, vaginal (ring), WO2011163358.
[23] abbreviates: Dog, 6.0 mg/24 h, vaginal (ring), WO2011163358.
[24] abbreviates: Dog, 10 mg/24 h, oral, WO2011163358.
Setting [25] is: Human, dose 5.0, dermal (patch), Kennelly.
Setting [26] is: Human, dose 5.0, oral (ext. rel.), Kennelly.
The mark [27] stands for this setting: Human, dose 5.0, oral, Kennelly.
The mark [28] stands for this setting: Human, dose 100, dermal (gel), Kennelly.

Several values for one entry are separate records, joined by “and”; a condition that tells them apart may be missing. Identical values can stand only once. Counter-ions that a name gives are not always drawn. Like-named read-outs stand apart in the source and are kept apart here. Bounds are passed on as bounds.

As for `CC(C)C[C@H](NC(=O)CNC(=O)[C@H](Cc1ccc(O)cc1)NC(=O)[C@H](CO)NC(=O)[C@H](Cc1c[nH]c2ccccc12)NC(=O)[C@H](Cc1cnc[nH]1)NC(=O)[C@@H]1CCC(=O)N1)C(=O)N[C@@H](CCCNC(=N)N)C(=O)N1CCC[C@H]1C(=O)NCC(N)=O` [GnRH, Gonadotropin-releasing hormone], the time of peak concentration (Tmax) (commonly the time at which the peak concentration occurs) in the data set “in vivo” (0.5 mg) was 10 min. In “in vivo” (50 uL, Plasma concentration), this compound had a level at 20 min of 0.41 ng/mL, a level at 0.5 h of 0.2 ng/mL, a level at 2.25 h of 0.71 ng/mL and a level at 245 min of 0.19 ng/mL. For the same compound, the Tmax in “in vivo” is not above 5 min. For the setting “dog, in vivo”, the Plasma concentration entry is recorded as “<LLOQ” and the “Time until plasma levels fall below LLOQ / return to baseline” value was not above 60 min. For the same compound, the Tmax (female, Beagle, dog, in vivo, 0.5 mg) is reported as 5 min. The highest concentration (Cmax) (usually the highest concentration seen after dosing) in data set [1] (human, in vivo, inhaled or intranasal, 0.8 mg) was 0.35 ng/mL. In addition, the peak concentration (Cmax) in data set [1] (human, in vivo) is on record as 0.002 ng/mL.

As for `O=C1Nc2ccc(Cl)cc2C(c2ccccc2Cl)=NC1O` (stereo not drawn) [Lorazepam], the Cmax in “in vivo” (setting [4]) turned out to be 4 ng/mL; the peak level in the data set “in vivo” (setting [5]) (Cmax) was 7.8 ng/mL; the peak concentration (Cmax) under setting [15] was determined as 2.8 ng/mL; the highest concentration (Cmax) (Dog, Lorazepam 0.8 mg (2nd), vaginal, present study) is 7.0 ng/mL; the Cmax in data set [1] (setting [16]) was 22.6 ng/mL; the highest concentration (Cmax) in data set [1] (setting [17]) is 47.6 ng/mL. For the same compound, the Cmax in data set [1] (setting [18]) and in data set [1] (setting [19]) was 33.4 ng/mL throughout. Besides, the Tmax in the data set “in vivo” (setting [4]) was 5 min; the time of peak concentration (Tmax) in “in vivo” (setting [5]) is 10 min; the Tmax in “in vivo” (setting [6]) was 10 min; the time to peak (Tmax) under setting [15] came out at 10 min; the Tmax under setting [6] was determined as 20 min; the Tmax in data set [1] (setting [16]) was 180 min. Moreover, the time of peak concentration (Tmax) is 6 min in data set [1] (setting [17]), 55 min in data set [1] (setting [18]) and 55 min in data set [1] (setting [19]). The Plasma concentration under setting [7] is 1.55 ng/mL and 3.93 ng/mL; the Plasma concentration under setting [8] was 2.65 ng/mL and 3.47 ng/mL; the Plasma concentration under setting [9] was 2.23 ng/mL and 4.25 ng/mL; the Plasma concentration under setting [10] was 1.49 ng/mL and 3.28 ng/mL; the Plasma concentration under setting [11] was 0.38 ng/mL and 0.99 ng/mL; the Plasma concentration under setting [12] is 7.65 ng/mL and 7.13 ng/mL. Moreover, the Plasma concentration is 4.96 ng/mL and 6.16 ng/mL under setting [13]; 1.89 ng/mL and 3.32 ng/mL under setting [14]; “<LLOQ” (Pre-dose, individual dogs). For the same compound, the “Time until plasma levels fall below LLOQ / return to baseline” value (after vaginal administration, Beagle dogs) is not above 120 min.

Take `CN1CCCC1c1cccnc1` (stereo not drawn) [Nicotine]: the time of peak concentration (Tmax) in “in vivo” ([…] mg) was 10 min; the Tmax in “in vivo” is not above 5 min; the Tmax in data set [2] (dog, in vivo, po, 64 mg) is reported as 120 min; the time of peak concentration (Tmax) in data set [2] (dog, in vivo, po, 148 mg) is listed as 60 min; the time to peak (Tmax) (female, Beagle, dog, in vivo) is 10 min; the Tmax (female, Beagle, dog, in vivo, 2.5 mg) was 5 min. The time of peak concentration (Tmax) was 2 min in data set [1] (setting [20]) and 30 min in data set [1] (setting [21]). In addition, the “Cmax / plasma concentration of one animal relative to the other animal” value (dog, in vivo) is given as “more than 4 times”. Also, the “Time until plasma levels fall below LLOQ / return to baseline” value (female, Beagle, dog, in vivo) was not above 120 min. Besides, the figures for the Cmax in data set [1] (setting [20]) and in data set [1] (setting [21]) were 49 ng/mL and 40 ng/mL, respectively.

For `O=[N+]([O-])OCC(CO[N+](=O)[O-])O[N+](=O)[O-]` [Nitroglycerin], the Plasma concentration entry was “<LLOQ” under setting [7]; “<LLOQ” under setting [8]; “<LLOQ” under setting [9]; “<LLOQ” under setting [10]; “<LLOQ” under setting [11]; “<LLOQ” (120 min after first vaginal dose, individual dogs). Also, the Plasma concentration result is, setting by setting: under setting [12], “<LLOQ”; under setting [13], “<LLOQ”; under setting [14], “<LLOQ”; (245 min after first dose (second vaginal dose at 125 min), individual dogs) “<LLOQ”; (Pre-dose, individual dogs) “<LLOQ”. Moreover, under “after vaginal administration of Nitroglycerin, Beagle dogs, listed as nitroglycerin”, the “Parent compound concentration detectable in plasma” value is reported as “no detectable concentrations”.

On to `CCN(CC)CC#CCOC(=O)C(O)(c1ccccc1)C1CCCCC1` (stereo not drawn) [Oxybutynin HCl], for which the time to peak (Tmax) in the data set “in vivo” is 10 min; in data set [2] (setting [22]), 90 min; in data set [2] (setting [23]), 90 min; in data set [2] (setting [24]), 180 min; in data set [1] (setting [25]), 1500 min; in data set [1] (setting [26]), 60 min. Also, the Tmax in data set [1] (setting [27]) is given as 50 min; in data set [1] (setting [28]), 1500 min. For the same compound, the peak concentration (Cmax) is listed as 14.0 ng/mL in data set [2] (setting [22]); 18.8 ng/mL in data set [2] (setting [23]); 17.9 ng/mL in data set [2] (setting [24]); 4.2 ng/mL in data set [1] (setting [25]); 2.1 ng/mL in data set [1] (setting [26]); 10.0 ng/mL in data set [1] (setting [27]). For the same compound, the highest concentration (Cmax) in data set [1] (setting [28]) is listed as 3.2 ng/mL. The “Cmax / plasma concentration of one animal relative to the other animal” value (dog, in vivo) was “more than 3 times”. Where the note is “dog, in vivo”, the “Elimination from the body” value is recorded as “almost completely eliminated”. Where the note is “dog, in vivo”, the Plasma concentration entry is “<LLOQ”.

Turning to `CC[C@H](C)[C@@H]1NC(=O)[C@H](Cc2ccc(O)cc2)NC(=O)[C@@H](N)CSSC[C@@H](C(=O)N2CCC[C@H]2C(=O)N[C@@H](CC(C)C)C(=O)NCC(N)=O)NC(=O)[C@H](CC(N)=O)NC(=O)[C@H](CCC(N)=O)NC1=O` [oxytocin], the half life time result in data set [3] is on record as “less than 6 minutes”.

The values are drawn from US11717477B2, “Vaginal systemic drug delivery” (LiGalli B.V., priority 2018, dated 2023).
